The values that follow come from PMC9229949 (Pharmaceutics, 2022).

The inhibition is the relative decrease from the control value, in per cent. One may read the IC50 as the point on the concentration scale where inhibition reaches its midpoint.

In assay [1] the test system is P. berghei sporozoites in Huh-7 cells. The experiment in a line: P. berghei hepatic stages: infection of Huh-7 cells by luciferase-expressing sporozoites. It is filed as cell-based. The method, then:
Huh-7 cells at 1.0 × 10^4 per well were seeded in 96-well plates the day before drug treatment and infection. The culture medium was replaced by infection medium (culture medium supplemented with gentamicin (50 μg/mL) and amphotericin B (0.8 μg/mL)) containing the appropriate concentration of each compound for approximately 1 h prior to infection with sporozoites of firefly luciferase-expressing P. berghei, freshly obtained through the disruption of salivary glands of infected female Anopheles stephensi mosquitoes. An amount of the DMSO solvent equivalent to that present in the highest compound concentration was used as negative control. Sporozoite addition was followed by centrifugation at 1800× g for 5 min. and parasite infection load was measured 48 h after infection by using a bioluminescence assay (Biotium, Hayward, CA, USA). The effect of the compounds on the viability of Huh-7 cells was assessed by performing the AlamarBlue (Invitrogen, Waltham, MA, USA) assay according to the manufacturer’s protocol.

Assay [2] deals with 3D7 P. falciparum gametocytes stage V. The experiment in a line: P. falciparum mature gametocytes (stage V), luciferase viability. As to conditions: 3D7 strain, 72 h, mean ± S.D. of one experiment, read-out: IC50, gametocytes of P. falciparum, Stage V. Format: cell-based. The method, then: The activity of compounds was assessed against young gametocytes (stages I/III) and against mature gametocytes (stage V). […] A volume of 100 μL of 3D7elo1-pfs16-CBG99 gametocytes of 3D7 P. falciparum at 0.5–1% parasitemia and 2% hematocrit were dispensed. […] Luciferase activity was used to determine gametocytes viability. A volume of 100 µL of culture medium was removed from each well to increase hematocrit; 70 µL of resuspended culture was transferred to a black 96-well plate; 70 µL of D-luciferin (1 mM in citrate buffer 0.1 M, pH 5.5) was added. Luminescence measurements were performed after 10 min with 500 ms integration time. The IC50 was extrapolated from nonlinear regression analysis of the concentration–response curve.

Assay [3] has as its target T1, S. mansoni thioredoxin-glutathione reductase (SmTGR) (Schistosoma mansoni, UniProt Q962Y6).
T1 construct: made in house
T1 sequence (Q962Y6 1-598): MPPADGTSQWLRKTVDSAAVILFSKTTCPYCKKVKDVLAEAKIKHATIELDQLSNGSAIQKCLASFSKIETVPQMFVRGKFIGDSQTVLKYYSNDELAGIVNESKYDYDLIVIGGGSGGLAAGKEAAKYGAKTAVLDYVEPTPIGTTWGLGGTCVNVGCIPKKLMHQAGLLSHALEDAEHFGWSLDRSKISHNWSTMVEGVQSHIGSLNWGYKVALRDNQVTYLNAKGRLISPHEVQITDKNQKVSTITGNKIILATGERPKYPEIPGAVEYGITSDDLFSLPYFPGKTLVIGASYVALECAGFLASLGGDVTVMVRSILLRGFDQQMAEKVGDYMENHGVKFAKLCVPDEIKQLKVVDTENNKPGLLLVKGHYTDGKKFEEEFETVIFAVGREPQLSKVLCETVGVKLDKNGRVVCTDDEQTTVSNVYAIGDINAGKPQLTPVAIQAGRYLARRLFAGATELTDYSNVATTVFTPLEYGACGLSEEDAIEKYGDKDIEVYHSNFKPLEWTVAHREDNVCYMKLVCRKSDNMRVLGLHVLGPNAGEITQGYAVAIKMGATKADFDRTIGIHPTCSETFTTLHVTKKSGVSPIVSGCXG
Briefly: Inhibition of enzymatic activity of recombinant S. mansoni thioredoxin glutathione reductase. As to conditions: 15 min preincubation, mean of one experiment, read-out: IC50 for TrxRs, S. mansoni (Sec). It is filed as biochemical. The method, then:
(§1) The codon-optimized sequence for PfTrxR [27, 28] was synthesized and subcloned into pET-15b (Genscript) and expressed and purified as for human glutathione reductase (hGR). Recombinant Schistosoma mansoni (S. mansoni) thioredoxin glutathione reductase (SmTGR), human TrxR (hTrxR), and hGR proteins were expressed and purified as described. TrxR and TGR enzyme inhibition assays were performed in triplicate at 25 °C in 0.1 M potassium phosphate (pH 7.4), 10 mM EDTA, 100 µM NADPH and 0.01% Tween-20. SmTGR (4 nM), hTrxR (4 nM), and PfTrxR (50 nM) were preincubated with the compounds for 15 min. The reaction was started with addition of an equal volume of 5,5′-dithiobis(2-nitrobenzoic acid) (6 mM) and NADPH (100 µM). The increase in A412 during the first 3 min was recorded. […]. The reactions were performed in triplicate. The IC50s were calculated in Prism version 5.01.

A further assay has as its target T2, PfTrxR (Plasmodium falciparum, UniProt Q25861).
T2 construct: made in house
T2 sequence (Q25861 1-541): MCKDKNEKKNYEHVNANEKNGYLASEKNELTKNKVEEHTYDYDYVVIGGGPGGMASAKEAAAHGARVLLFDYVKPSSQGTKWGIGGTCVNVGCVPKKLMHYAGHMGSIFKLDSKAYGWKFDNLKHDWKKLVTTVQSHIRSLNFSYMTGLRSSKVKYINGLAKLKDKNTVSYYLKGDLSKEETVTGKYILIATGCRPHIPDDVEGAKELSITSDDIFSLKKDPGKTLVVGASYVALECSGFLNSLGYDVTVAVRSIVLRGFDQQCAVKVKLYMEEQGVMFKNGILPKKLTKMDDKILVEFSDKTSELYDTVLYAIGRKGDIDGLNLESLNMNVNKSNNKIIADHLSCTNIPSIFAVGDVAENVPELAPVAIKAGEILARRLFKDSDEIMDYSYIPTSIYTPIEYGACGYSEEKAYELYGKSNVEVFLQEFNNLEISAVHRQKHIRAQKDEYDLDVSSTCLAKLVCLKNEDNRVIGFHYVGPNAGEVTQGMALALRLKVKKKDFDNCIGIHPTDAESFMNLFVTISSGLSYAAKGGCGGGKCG
Briefly: Inhibition of enzymatic activity of recombinant P. falciparum TrxR. It is filed as biochemical. The method, then:
as §1

For assay [4], the target named is T3, human glutathione reductase (hGR) (Homo sapiens, UniProt P00390).
T3 construct: made in house
T3 sequence (P00390 44-522): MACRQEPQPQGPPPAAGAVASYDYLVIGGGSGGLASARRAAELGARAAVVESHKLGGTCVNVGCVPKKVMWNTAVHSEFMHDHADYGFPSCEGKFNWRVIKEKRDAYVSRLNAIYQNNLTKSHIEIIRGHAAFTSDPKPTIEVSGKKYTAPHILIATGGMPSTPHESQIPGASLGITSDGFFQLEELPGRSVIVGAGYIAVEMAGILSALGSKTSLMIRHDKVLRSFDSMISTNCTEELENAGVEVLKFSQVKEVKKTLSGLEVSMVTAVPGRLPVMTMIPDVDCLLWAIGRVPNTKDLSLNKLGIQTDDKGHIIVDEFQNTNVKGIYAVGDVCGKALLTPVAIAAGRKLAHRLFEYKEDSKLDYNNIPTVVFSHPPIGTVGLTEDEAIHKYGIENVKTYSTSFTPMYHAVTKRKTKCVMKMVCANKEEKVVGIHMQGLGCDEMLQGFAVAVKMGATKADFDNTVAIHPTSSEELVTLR
The experiment in a line: Inhibition of enzymatic activity of recombinant human glutathione reductase. It is filed as biochemical. As to conditions: recombinant enzyme, 15 min preincubation; mean of one experiment; read-out: IC50, Human GR. Here is the method:
as §1

Where two headings read alike, the source gives them in different places. Bounds are passed on as bounds.

With `CCN(CC)Cc1cc(Nc2ccnc3cc(Cl)ccc23)ccc1O` [Amodiaquine (AQ), amodiaquine], in assay [1] (Plasmodium berghei, Huh-7, 48 h, read-out: Sporozoites (Inhibition of Infection, %)), the inhibition at 10 µM was found to be 71%. For the same compound, the IC50 in assay [2] (Plasmodium falciparum) was 23.6 ± 5 µM; in assay [3] it was 42 µM; at PfTrxR, more than 66.7 µM; in assay [4], more than 66.7 µM.

Take `[Cl][Au].c1ccc(P(c2ccccc2)c2ccccc2)cc1` [[AuClPPh3]]: the “inhibitory activity for the hepatic stages” value in assay [1] (up to 10 μM) was “no inhibitory activity”. Besides, the IC50 came out at 15.2 ± 2.6 µM in assay [2]; 0.0005 µM in assay [3]; 0.0019 µM on PfTrxR (recombinant enzyme, 15 min preincubation, mean of one experiment, read-out: IC50 for TrxRs, P. falciparum (Cys)); 0.00118 µM in assay [4].
